Common to all, as to assay type: cell-based
In experiment [1] the test system is patient-derived recombinant HIV-1 variants (protease/RT from patient plasma). The experiment in a line: Recombinant virus assay (ANTIVIROGRAM), MT-4 cell viral cytopathic effect (CPE) protection assay, patient-derived recombinant viruses (Example 2). Conditions: for level of resistance: samples with AZT and 3TC resistance mutations plus T69A/N or V175M. The method, then:
FIG. 1: Nucleoside analogue susceptibility of MDIR patient-derived recombinant HIV variants. Recombinant viruses were produced from patient plasma samples as described in Example 2 and tested for susceptibility to (a) d4T, (b) ddC and (c) ddl. […] Error bars indicate standard errors. Note that the total number (n=310) is higher than the 302 MDR samples described because a small minority were 69D/N and 75M double mutants and are represented in both groups.
Viral RNA was extracted from 200 μL patient plasma using the QIAAMPV® Viral RNA Extraction Kit (Qiagen, Hilden, Germany), according to the manufacturers instructions. cDNA encompassing part of the pol gene was produced using EXPAND™ reverse transcriptase (Boehringer Mannheim) as described previously. See Hertogs K., et al., Antimicrob. Agents Chemother. 42:269-276 (1998). A 2.2 kb fragment encoding the protease and RT regions was then amplified by nested polymerase chain reaction (PCR) using PCR primers and conditions as described. Id. This genetic material was subsequently used in both phenotyping and genotyping experiments.
MT-4 cells (Harada S., et al, Science 229:563-566(1985).) were co-transfected with pol gene PCR fragments and the protease-RT deleted HIV-1 molecular clone, pGEM3deltaPRT, as described. See Hertogs K., et al., Antimicrob. Agents Chemother. 42:269-276 (1998). […] Phenotypic susceptibility to nucleoside analogues was determined using an MT-4 cell viral cytopathic effect (CPE) protection assay as described. Id. Fold resistance values were derived by dividing the mean IC50 for a patient's recombinant virus by the mean IC50 for wild-type control virus (strain HXB2-D). The PCR products obtained from patient plasma samples were genotyped by dideoxynucleotide-based sequence analysis. Samples were sequenced using the BIGDYE™ terminator kit (Applied Biosystems, Inc. (ABI)) and resolved on an ABI 377 DNA sequencer.
From this analysis, 302 samples were identified with four-fold or greater increases in IC50 (relative to a wild-type control virus) to at least four of these inhibitors. […]

In experiment [2] the test system is HIV-1 HXB2 mutants with site-directed mutations in RT. Description: Recombinant virus assay, drug susceptibility of mutants with site-directed RT mutations (Example 1). The note with it: for Fold resistance: standard error in parentheses. The method, then: Plasma samples were obtained from HIV-1-infected individuals from routine clinical practice in Europe and the US and were shipped to the laboratory on dry ice and stored at −70° C. until analysis. Phenotypic analysis was performed using the recombinant virus assay. See Kellam, P., and B. A. Larder. Antimicrob. Agents Chemother. 38:23-30 (1994); Hertogs, K., et al., Antimicrob. Agents Chemother. 42:269-276 (1998); Briefly, protease (PR) and reverse transcriptase (RT) coding sequences were amplified from patient-derived viral RNA with HIV-1 specific primers. After homologous recombination of amplicons into a PR-RT deleted proviral clone, the resulting recombinant viruses were harvested, titrated and used for in vitro susceptibility testing to antiretroviral drugs.
For the modeling studies, mutations were generated in the RT gene of HXB2, a wild-type laboratory HIV-1 strain, using the QuikChange^J Site-Directed Mutagenesis Kit, […]^7, Stratagene Cloning systems, La Jolla, Calif., USA.

Experiment [3] has as its system HIV-1 HXB2-D variants with site-directed RT mutations. The experiment in a line: MT-4 cell CPE protection assay, HIV-1 variants constructed by site-directed mutagenesis (Example 2). The note with it: for susceptibility: 69S-[S-S] insert plus AZT resistance mutations (210W and 215Y); for resistance: T69A or V75M in a background of AZT mutations. How it is done:
Mutations in the RT coding region were created by site-directed mutagenesis of a wild-type HXB2-D EcoRl-Pstl restriction enzyme fragment, encompassing the HIV-1 pol gene and cloned into pGEM3 (Promega). Single and multiple nucleotide changes were introduced into RT using the EXSITE™ mutagenesis kit (Strategene). All mutant clones were verified by DNA sequence analysis of the entire RT. PCR fragments were prepared from the mutated clones and the altered RT coding regions were transferred into the HIV-1 HXB2-D genetic background by homologous recombination as described above. The susceptibility of these recombinant viruses to nucleoside analogues was subsequently determined by the MT-4 cell CPE protection assay. Id.

Marks after values point to notes of the source that are not given here.

With `Nc1ccn([C@@H]2CS[C@H](CO)O2)c(=O)n1` [3TC, lamivudine], in experiment [1] (all four MDR groups (151 cluster, 69D/N, 75M, codon 69 insertions)), the “mean fold increase in IC50” value is greater than 30 fold. Also, the Fold resistance in experiment [2] (SDM05: 41L, 210W, 211K, 214F, 215Y) is 4 (0.3)^c fold; in experiment [2] (SDM18: 41L, 67N, 210W, 211K, 214F, 215Y), 2 (0.6) fold; in experiment [2] (SDM19: 41L, 67N, 69D, 210W, 211K, 214F, 215Y), 4 (0.7) fold; in experiment [2] (SDM22: 184V, 41L, 210W, 211K, 214F, 215Y), 78 (16.3) fold; in experiment [2] (SDM23: 184V), 82 (13.6) fold; in experiment [2] (SDM24: 184V, 69S-S-S, 210W, 211K, 214D, 215Y), 85 (14.2) fold. Besides, the Fold resistance in experiment [2] (SDM26: 184V, 41L, 67N, 210W, 211K, 214F, 215Y) is on record as 72 (13.8) fold; in experiment [2] (SDM28: 44D), 1 (0.1) fold; in experiment [2] (SDM29: 1181), 2 (0.2) fold; in experiment [2] (SDM30: 44D, 1181), 3 (0.3) fold; in experiment [2] (SDM31: 44D, 41L, 67N, 210W, 211K, 214F, 215Y) it was 22 (2.5) fold; in experiment [2] (SDM32: 44D, 41L, 67N, 69D, 210W, 211K, 214F, 215Y), 8 (2.2) fold. Besides, the Fold resistance was 7 (1.0) fold in experiment [2] (SDM33: 1181, 41L, 67N, 210W, 211K, 214F, 215Y); 32 (3.9) fold in experiment [2] (SDM34: 1181, 41L, 67N, 69D, 210W, 211K, 214F, 215Y); 14 (1.4) fold in experiment [2] (SDM35: 44D, 1181, 41L, 67N, 210W, 211K, 214F, 215Y); 15 (2.1) fold in experiment [2] (SDM36: 44D, 1181, 41L, 67N, 69D, 210W, 211K, 214D, 215Y); 82 (13.5) fold in experiment [2] (SDM38: 184V, 44D, 1181, 41L, 67N, 210W, 211K, 214F, 215Y); 84 (13.9) fold in experiment [2] (SDM39: 184V, 44D, 1181, 41L, 67N, 69D, 210W, 211K, 214F, 215Y). The high resistance in experiment [2] (caused by mutation 184V) is given as greater than 62 fold.

As to `Cc1cn([C@H]2C=C[C@@H](CO)O2)c(=O)[nH]c1=O` [d4T, stavudine], in experiment [1], the “level of resistance” value is “only modest levels of resistance”. Moreover, in experiment [3], the “susceptibility” value is reported as “decreased susceptibility” and the “resistance” value was “little or no resistance”.

As for `Nc1ccn([C@H]2CC[C@@H](CO)O2)c(=O)n1` [ddC, zalcitabine], the “level of resistance” value in experiment [1] is given as “only modest levels of resistance”. In experiment [3], the “susceptibility” value is reported as “decreased susceptibility” and the “resistance” value is recorded as “little or no resistance”.
